Results published in patent US20250121099A1, “CLOSO-DODECAIODODECABORATE COMPLEXES AND METHODS OF USE FOR SAME” (The Regents of the University of California, priority 2022, published 2025).
“Also recorded” adds a separate entry of the source. Like-named read-outs stand apart in the source and are kept apart here.

What was measured:
[1] = tested on: human red blood cells (RBCs); experiment: Hemolytic activity of Na2B12I12 (Hb release from RBCs); format: cell-based
Excerpt: General methods. Na2B12I12 was obtained from Katchem, γ-cyclodextrin (γ-CD) was obtained from Combi-Blocks, 2-hydroxypropyl-γ-cyclodextrin (HP-γ-CD; 0.6 functionalized, average Mw=1580 Da) was obtained from Sigma-Aldrich, phosphate-buffered saline (PBS) was obtained from Fisher Scientific. The reagents were used as received. D2O was obtained from Cambridge Isotopes. Washed single-donor human red blood cells (RBCs) were obtained from Innovative Research. These are RBCs that have been separated from type 0 positive whole blood and resuspended in Alsever's Solution. Defibrinated bovine blood was obtained from HemoStat Laboratories. All experiments were performed under ambient conditions. NMR spectra were collected using a Bruker Avance III HD 500 spectrometer equipped with a multinuclear Smart Probe. The frequencies of the ^1H and ^11B NMR signals are reported in ppm as chemical shifts from TMS and BF3·Et2O, respectively. Electronic absorption spectra were recorded on VWR UV-6300PC double beam spectrophotometer. Stability of Na2B12I12: refluxing PBS. A 500 μL aliquot of a 10 mM solution of Na2B12I12 in PBS (pH 7.4) was placed in an oil bath pre-heated to 100° C. After incubating in this bath for 1 h, the sample was removed, cooled to room temperature, and spiked with 50 μL D2O prior to acquiring a ^11B NMR spectrum. Stability of Na2B12I12: human RBCs. A 275 μL aliquot of a 20 mM solution of Na2B12I12 in PBS (pH 7.4) was added to a 225 μL suspension of human RBCs. The mixture was allowed to stand at room temperature for 24 h. It was then spiked with 50 μL D2O prior to acquiring a ^11B NMR spectrum. […] Stability of Na2B12I12: bovine serum. A 1 mL aliquot of defibrinated bovine blood was centrifuged for 15 s at 15,850×g. A 225 μL aliquot of the serum supernatant was combined with a 275 μL aliquot of a 20 mM solution of Na2B12I12 in PBS (pH 7.4). The mixture was allowed to stand at room temperature for 24 h. It was then spiked with 50 μL D2O prior to acquiring a ^11B NMR spectrum. Stability of Na2B12I12: bovine blood. A 225 μL aliquot of defibrinated bovine blood was combined with a 275 μL aliquot of a 20 mM solution of Na2B12I12 in PBS (pH 7.4). The mixture was allowed to stand at room temperature for 24 h. It was then spiked with 50 μL D2O prior to acquiring a ^11B NMR spectrum. Job plot of HP-γ-CD and Na2B12I12. Solutions of Na2B12I12 (20 mM) and […] (20 mM) were prepared in PBS (pH 7.4). […] Each sample was spiked with D2O and analyzed by ^11B NMR spectroscopy. […] The absorbance of this solution was measured from 700 to 350 nm. The subsequent samples were then measured in turn. […] The absorbance corresponding to 100% lysis was confirmed by adding a 10 μL aliquot of freshly resuspended RBCs to 250 μL of hemolysis buffer (0.15 M NH4Cl and 10 mM KHCO3). […]

[2] = Stability of Na2B12I12: bovine blood (11B NMR); format: in vitro ADME; details: 24-hour incubation at room temperature with defibrinated bovine blood
Excerpt: (§1) General methods. Na2B12I12 was obtained from Katchem, γ-cyclodextrin (γ-CD) was obtained from Combi-Blocks, 2-hydroxypropyl-γ-cyclodextrin (HP-γ-CD; 0.6 functionalized, average Mw=1580 Da) was obtained from Sigma-Aldrich, phosphate-buffered saline (PBS) was obtained from Fisher Scientific. The reagents were used as received. D2O was obtained from Cambridge Isotopes. Washed single-donor human red blood cells (RBCs) were obtained from Innovative Research. These are RBCs that have been separated from type 0 positive whole blood and resuspended in Alsever's Solution. Defibrinated bovine blood was obtained from HemoStat Laboratories. All experiments were performed under ambient conditions. NMR spectra were collected using a Bruker Avance III HD 500 spectrometer equipped with a multinuclear Smart Probe. The frequencies of the ^1H and ^11B NMR signals are reported in ppm as chemical shifts from TMS and BF3·Et2O, respectively. Electronic absorption spectra were recorded on VWR UV-6300PC double beam spectrophotometer. […] Each sample was spiked with D2O and analyzed by ^11B NMR spectroscopy. […] The absorbance of this solution was measured from 700 to 350 nm. The subsequent samples were then measured in turn. […] The absorbance corresponding to 100% lysis was confirmed by adding a 10 μL aliquot of freshly resuspended RBCs to 250 μL of hemolysis buffer (0.15 M NH4Cl and 10 mM KHCO3). […]

[3] = Stability of Na2B12I12: bovine serum (11B NMR); format: in vitro ADME; details: 24-hour incubation at room temperature with bovine serum
Excerpt: as §1

[4] = Stability of Na2B12I12: refluxing PBS (11B NMR); format: physicochemical; details: refluxing in PBS pH 7.4 (100° C.) for 1 hour
Excerpt: as §1

mice = details: cited from earlier work
cats = details: cited from earlier work
[5] = Stability of Na2B12I12: human RBCs (11B NMR); format: in vitro ADME; details: 24-hour incubation at room temperature with suspension of human RBCs
Excerpt: as §1

[6] = cited from earlier work

Substance	hemolysis ([1]; 100 mM Na2B12I12, no cyclodextrin, human RBCs)	concentrations at which hemolysis is not induced ([1]; Na2B12I12 alone)	concentration of PBS solutions that induce hemolysis ([1]; PBS)	IC50 ([1]; human RBCs in PBS pH 7.4, 10 s exposure, three replicates, read-out: IC50 (proportion of RBCs lysed, absorption of supernatant at 413 nm, logistic regression) (converted)) [mM]	stability (new 11B NMR signals) [2]	stability (new 11B NMR signals) [3]	stability (new 11B NMR signals) [4]	toxicity (mice)	toxicity (cats)	stability (new 11B NMR signals) [5]	chemical stability ([6]; heating to 85° C. in 5M NaOH)	chemical stability ([6]; heating to 150° C. in H2SO4)	chemical stability ([6]; treatment with Cl2 gas)
closo-dodecaiodododecaborate sodium [Na2B12I12]	rapid hemolysis; also recorded: complete hemolysis	below 6 mM	greater than 50 mM	66.3	no additional signals appear; also recorded: absence of new signals	no additional signals appear; also recorded: absence of new signals	lack of new ^11B NMR signals	toxic	toxic	no additional signals appear; also recorded: absence of new signals	–	–	–
closo-dodecaiodododecaborate [B12I12^2−]	–	–	–	–	–	–	–	–	–	–	unchanged	unchanged	unchanged
